Experimental data: US12427189B2, “Vaccine comprising epitope of heat shock protein, and use thereof” (ASTON SCI. CO., LTD., priority 2018, dated 2025)
pIC50: −log10 of the molar value.

Legend:
[1] = test system: human PBMCs; assay: IFN-γ and IL-10 ELISPOT screen of HSP90 peptides in human PBMCs; assay type: cell-based; conditions: human PBMCs from 10 volunteer donors
Protocol: Serum samples were obtained after written consent, from 25 HER2 positive breast cancer patient, and 25 volunteer donors at the Korea University Anam Hospital (Approval number: 2016AN0090). All sera were aliquoted and stored at −80° C. For human T cell response studies, peripheral blood mononuclear cells (PBMC) were obtained after informed consent, from 10 breast cancer patients, and 10 volunteer donors. Cells were ficolled and cryopreserved as previously described (Guy C T, et al. (1992) Expression of the neu protooncogene in the mammary epithelium of transgenic mice induces metastatic disease. Proceedings of the National Academy of Sciences of the United States of America 89(22):10578-10582). PBMC samples were obtained at the General Clinical Research Center Facility at the University of Washington (Approval number: NIH MO1-RR-00037)
(§1) Color development was stopped by washing under tap water.
This study profiled the peptide sequences with the highest recognition of HSP90 peptide and MHC class II peptide binding by a scoring system combining multiple MHC class II peptide binding algorithms. FIG. 2 depicts the entire HSP90 peptide sequence and identified immunogenic “hotspots”. Among them, 11 peptides with the highest scores in the binding affinity scoring system were selected. The selected 11 15-mer HSP90 peptides (Table 2) were screened for T helper (Th)1 or Th2 immunity in human PBMCs from 10 volunteer donors by IFN-γ ELISPOT assay using as a representative Th1 cytokine, IFN-γ, and a Th2 cytokine, Interleukine-10 (IL-10).

[2] = test system: mouse mammary carcinoma (MMC) cells; assay: Combination of HSP90 peptides and STING agonist in MMC tumor-bearing mice; assay type: in vivo, neu-transgenic mice
Text: (§2) To evaluate effects of the combination therapeutic with HSP90 peptides and STING agonist (tlrl-dmx, InvivoGen, CA, USA), MMC cells (5×10^5) were implanted with s.c in neu-transgenic mice. […] Three immunizations were given 10 days apart. 15 days after the third vaccination, spleen, tumor and serum was harvested in mice. To evaluate survival analysis of the combination effects with HSP90 peptides and STING agonist, mice were monitored two time per week until 90 days following tumor implantation and when tumor reached a size greater than 2,000 mm^3, mice were considered dead.
The levels of HSP90 and HER2 ECD were evaluated by ELISA in the serum of HER2 positive breast cancer patients and mice. Briefly, HSP90 (ADI-SPP-776, Enzo Life Science, NY, USA) and HER2 ECD (YCP5341, Speed Biosystems) recombinant proteins were coated a 96-well microplate with 50 μL per well of the diluted concentration of 20 μg/mL in carbonate buffer. Standard was coated with IgG dilution of human and mouse to serial concentration (0.64˜0.005 μg/mL). […] Samples (200 μL) were added to the wells and incubated overnight at 4° C. […] The optical density of each well at 450 nm was determined using an IMARKTM™ microplate reader (Bio-Rad Laboratories, Hercules, CA, USA). […]

[3] = test system: mouse mammary carcinoma (MMC) cells; assay: Survival analysis of HSP90 peptides and STING agonist in MMC tumor-bearing mice; assay type: in vivo, neu-transgenic mice; conditions: monitored until 90 days after tumor implantation; tumor >2,000 mm^3 considered dead
Text: as §2

[4] = test system: Splenocytes; assay: Immunogenicity of HSP90 peptides in immunized FVB mice, IFN-γ ELISPOT of splenocytes; assay type: in vivo; conditions: mice immunized s.c. 100 μg single peptide in CFA/IFA, 3 times; compared with control
Protocol: To test immunogenicity of the selected peptides in murine model, six to eight-week-old female FVB mice were obtained from Koatech (Gyeonggi, Korea). The mice were immunized subcutaneous (s.c) injection with 100 μg of respective HSP90 peptides of SEQ ID NOs: 1, 2, and 5-14 or Phosphate Buffered Saline (PBS) as a mixture in complete Freund's adjuvant (CFA; F5881, Sigma, MO, USA)/incomplete Freund's adjuvant (IFA; F5506, Sigma). Three immunizations were given 10 days apart. Ten days after the third vaccination, spleen and serum was harvested from each mouse.
as §1

[5] = test system: MMC cells; assay: Cell viability MTT assay, MMC cells; assay type: cell-based, mouse
Text: (§3) Neu-transgenic mice [strain: FVB/N-Tg(MMTVneu)202Mul] were obtained from the Jackson Laboratory (Bar Harbor, ME). These mice harbor non-mutated, non-activated rat neu under the control of the mouse mammary tumor virus (MMTV) promoter/enhancer. The neu transgene is expressed at low levels in normal mammary epithelium, salivary gland, and lung. Until the age of eight month, 35% of female neu-transgenic mice spontaneously develop mammary carcinomas that display high neu-expression levels. Mouse mammary carcinoma (MMC) cell line was established from a spontaneous tumor in neu-transgenic mouse. MMC cells were maintained in RPMI-1640 medium (ThermoFisher scientific, Utah, USA) supplemented with 10% fetal bovine serum, 100 units/ml penicillin, […] streptomycin and 2 mM L-glutamine, and were incubated in a humidified 37° C. incubator with 5% CO2. Lapatinib was purchased from LC laboratories (L-4899, MA, USA). […]
(§4) Cells were seeded at a density of 1×10^5 cells in 6-well plates. […] Cell viability was quantitatively analysed using the 3-[4,5-dimethylthiazol-2-yl]-2,5-diphenyltetrazolium (MTT) assay. […] The absorbance of the converted MTT dye was measured at 540 nm using an IMARK™ microplate reader (Bio-Rad Laboratories). Cell viability was expressed as the relative percentage compared to untreated cells; experimental error was also calculated. […] The percent of cell survival was calculated using […] […]

[6] = test system: LR-MMC cells; assay: Cell viability MTT assay, lapatinib-resistant MMC cells; assay type: cell-based, mouse
Text: as §3, §4

[7] = test system: MMC cells; assay: Lapatinib treatment of MMC tumor-bearing mice; assay type: in vivo, neu-transgenic mice; conditions: day 34, lapatinib 75 mg/kg oral gavage 5 times weekly
Protocol: (§5) To establishment lapatinib-resistant mouse model, MMC and lapatinib-resistant MMC cells (1×106) were injected flank with s.c in neu-transgenic mice.

[8] = test system: LR-MMC cells; assay: Lapatinib treatment of LR-MMC tumor-bearing mice; assay type: in vivo, neu-transgenic mice; conditions: lapatinib 75 mg/kg oral gavage 5 times weekly
Protocol: as §5

[9] = test system: LR-MMC cells; conditions: per 10 high-power field, IHC

| Compound | Th1 and Th2 immune responses (IFN-γ and IL-10 ELISPOT) [1] | antigen-specific T cell response (IFN-γ ELISPOT) [4] | other results |
| --- | --- | --- | --- |
| IVKKHSQFIGYPITL (HSP90 p328-342) [HSP90 15-mer peptide] | strong Th1 and Th2 immune responses |  |  |
| Cc1ccc2c(=O)c3cccc(CC(=O)O)c3oc2c1C [STING agonist] |  |  | mean tumor volume (mean±SD) ([2]; day 35, treatment from tumor >100 mm^3, 3 times): 647±66 mm^3; expression levels of mouse HER2 ECD (ELISA) ([2]; serum): 89 µg/mL; median survival [3]: 79 days |
| LEFRALLFVPRRAPF (HSP90 p457-471) [HSP90 15-mer peptide] | weak Th1 and Th2 immune responses | significantly higher |  |
| QSKILKVIRKNLVKK (HSP90 p527-541) [HSP90 15-mer peptide] | predominantly Th1 immune responses | significantly higher |  |
| LYKDLQPFILLRLLM (HSP90 p109-123) [HSP90 15-mer peptide] | strong Th1 and Th2 immune responses |  |  |
| SELLRYYTSASGDEM (HSP90 p582-596) [HSP90 15-mer peptide] | weak Th1 and Th2 immune responses |  |  |
| TDTGEPMGRGTKVIL (HSP90 p296-310) [HSP90 15-mer peptide] | weak Th1 and Th2 immune responses |  |  |
| QFGVGFYSAYLVAEK (HSP90 p255-269) [HSP90 15-mer peptide] | weak Th1 and Th2 immune responses |  |  |
| CS(=O)(=O)CCNCc1ccc(-c2ccc3ncnc(Nc4ccc(OCc5cccc(F)c5)c(Cl)c4)c3c2)o1 [lapatinib] |  |  | sensitivity after lapatinib treatment ([5]; MMC cells): sensitive in a dose-dependent manner; pIC50 ([5]; Mus musculus, parent MMC cells): 7.12; apoptosis ([6]; LR-MMC cells compared with MMC cells): did not induce significant apoptosis; pIC50 ([6]; Mus musculus, LR-MMC cells): 6.41; mean tumor volume (mean±SD) [7]: 1711±397 mm^3; mean tumor volume (mean±SD) [8]: 1212±523 mm^3; infiltrated CD8+ T cells in tumor (Mean median) [9]: 6.6 counts |
| YSNKEIFLRELISNS (HSP90 p160-174) [HSP90 15-mer peptide] | weak Th1 and Th2 immune responses | significantly higher |  |
| SVKDLVILLYETALL (HSP90 p780-794) [HSP90 15-mer peptide] | weak Th1 and Th2 immune responses |  |  |
| LYVRRVFIMDNCEEL (HSP90 p485-499) [HSP90 15-mer peptide] | predominantly Th1 immune responses | significantly higher |  |
